Earlier results as cited in publication PMC9605497, “Potential of Epidermal Growth Factor-like Peptide from the Sea Cucumber Stichopus horrens to Increase the Growth of Human Cells: In Silico Molecular Docking Approach” (Marine Drugs, 2022).

Columns and labels:
EGFR = details: SPR and AFM, experimental; ref [41] Kuo et al.; read-out: dissociation constant (Kd) of EGF and EGFR complex; cited from earlier work
Excerpt: The values are different because docking is based on the scoring functions used. […] A lower Kd value means dissociation occurs at a slow rate and the binding affinity (Ka) between these ...

carcinoma cells = details: 10 nM EGF; ref [75] Clark et al.; cited from earlier work
Method: (§1) The rationale of testing peptide concentrations at 10 nM was based on a study done by Clark et al.. In the study, the EGFR expression in carcinoma cells was prolonged for 10 h when 10 nM of EGF was exerted, as compared to only 4 h of EGFR expression in 0.4 nM EGF. This is supported by another experiment by Zhao et al. where cell proliferation of CHO cells can only be induced when exerted with EGF concentrations below 0.1 ng/mL. In contrast, cell proliferation at higher EGF concentrations (1 to 100 ng/mL) was suppressed. The process of EGF binding to its receptor and the internali ...

CHO cells = details: ref [76] Zhao et al., cited from earlier work
Method: as §1

HeLa cells = details: ref [77]; cited from earlier work
Method: as §1

human skin model = details: 50 nM, compared to 0.1 nM and 10 nM EGF; ref [18]; cited from earlier work
Excerpt: Despite these nutritional properties that could be indirectly associated with the wound healing benefit of this marine organism, the full potential of sea cucumber as a source of marine therapeutic product remains unexplored and limited to the previous approaches of specific metabolite identification. Among the prospective molecules to be investigated are growth factors and cytokines, which are examples of important mitogens that ensure an effective wound healing process. Several mitogens are involved directly as growth factors in cell proliferation such as epidermal growth factor (EGF) ...

receptors (EGFR) = details: 0.156 to 5 ng/mL biotinylated EGF; ref [46] King et al.; cited from earlier work
Method: The increasing binding activity was determined by both the concentration of biotinylated EGF tested and the number of cells used. In this study, inoculating about 80,000 cells gives a reproducible result as opposed to when lower number of cells was used. Increasing the ligand concentration could improve assessment of the binding signal of Sh-EGFl-1 peptide with human EGFR s ...

## Human EGF: human EGF (chain C) of crystal structure 1IVO; also EGF of cited literature (MNSDSECPLSHDGYCLHDGVCMYIEALDKYACNCVVGYIGERCQYRDLKWWELR; biotin (conjugated with NHS-biotin; sites not stated))
EGFR
  Kd: ~177 nM
Carcinoma cells
  duration of EGFR expression: 10 h
CHO cells; 1 to 100 ng/mL
  cell proliferation at higher EGF concentrations: suppressed
CHO cells; CHO cells
  EGF concentration inducing cell proliferation: below 0.1 ng/mL
HeLa cells
  time for EGF binding and internalization of receptor: less than 30 min
Human skin model
  DNA synthesis: maximum increase of DNA synthesis

## biotinylated EGF: biotinylated EGF used by King et al.
Receptors (EGFR)
  absorbance reading: consistent increases in the absorbance reading
